Laboratory results reported in ChEMBL document CHEMBL1201862, “PubChem BioAssay data set” (2004).
Activity calls are given as the source filed them.

Legend:
[1] = tested on: Vero; assay: cells; type: functional, cell-based; conditions: Chlorocebus sabaeus
[2] = cells
[3] = HEp-2 cell cytotoxicity, dose response, cytotoxicity control for RSV inhibitor project, HTS (AID 2410); type: functional; conditions: human respiratory syncytial virus
[4] = target: Eukaryotic translation initiation factor 4E (Mus musculus, UniProt P63073); assay: eIF4E–eIF4G protein interaction inhibitors, dose response, biochemical, TR-FRET (AID 855); type: functional;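 note: potency for disrupting eIF4E binding to eIF4GI seen as loss of FRET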
[5] = tested on: BJ; assay: cytotoxicity toward BJ-TERT-LT-ST fibroblasts, dose response, cell-based, RAS-independent, luminescence (AID 1935); type: functional; conditions: Homo sapiens;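 note: BJ fibroblasts immortalized with TERT plus LT and ST oncogenes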
[6] = tested on: Vero; assay: cells; type: functional; conditions: Chlorocebus sabaeus
[7] = tested on: BJ; assay: cytotoxicity toward BJ-TERT fibroblasts, dose response, cell-based, RAS-independent, luminescence (AID 1933); type: functional; conditions: Homo sapiens
[8] = tested on: BJ; assay: cells; type: functional, cell-based, Homo sapiens; conditions: Homo sapiens, BJ
[9] = cytotoxicity toward DRD oncogenic fibroblasts, dose response, cell-based, non-viral oncogenic, luminescence (AID 1934); type: functional; conditions: Homo sapiens
[10] = target: T1, Aminopeptidase N (Plasmodium falciparum FcB1/Columbia, UniProt O96935); assay: P. falciparum M1AAP inhibitors, biochemical, fluorogenic H-Leu-NHMec substrate, 1536-well (AID 1445); parameters: species or system Plasmodium falciparum 3D7, 3D7
T1 sequence (O96935 whole entry): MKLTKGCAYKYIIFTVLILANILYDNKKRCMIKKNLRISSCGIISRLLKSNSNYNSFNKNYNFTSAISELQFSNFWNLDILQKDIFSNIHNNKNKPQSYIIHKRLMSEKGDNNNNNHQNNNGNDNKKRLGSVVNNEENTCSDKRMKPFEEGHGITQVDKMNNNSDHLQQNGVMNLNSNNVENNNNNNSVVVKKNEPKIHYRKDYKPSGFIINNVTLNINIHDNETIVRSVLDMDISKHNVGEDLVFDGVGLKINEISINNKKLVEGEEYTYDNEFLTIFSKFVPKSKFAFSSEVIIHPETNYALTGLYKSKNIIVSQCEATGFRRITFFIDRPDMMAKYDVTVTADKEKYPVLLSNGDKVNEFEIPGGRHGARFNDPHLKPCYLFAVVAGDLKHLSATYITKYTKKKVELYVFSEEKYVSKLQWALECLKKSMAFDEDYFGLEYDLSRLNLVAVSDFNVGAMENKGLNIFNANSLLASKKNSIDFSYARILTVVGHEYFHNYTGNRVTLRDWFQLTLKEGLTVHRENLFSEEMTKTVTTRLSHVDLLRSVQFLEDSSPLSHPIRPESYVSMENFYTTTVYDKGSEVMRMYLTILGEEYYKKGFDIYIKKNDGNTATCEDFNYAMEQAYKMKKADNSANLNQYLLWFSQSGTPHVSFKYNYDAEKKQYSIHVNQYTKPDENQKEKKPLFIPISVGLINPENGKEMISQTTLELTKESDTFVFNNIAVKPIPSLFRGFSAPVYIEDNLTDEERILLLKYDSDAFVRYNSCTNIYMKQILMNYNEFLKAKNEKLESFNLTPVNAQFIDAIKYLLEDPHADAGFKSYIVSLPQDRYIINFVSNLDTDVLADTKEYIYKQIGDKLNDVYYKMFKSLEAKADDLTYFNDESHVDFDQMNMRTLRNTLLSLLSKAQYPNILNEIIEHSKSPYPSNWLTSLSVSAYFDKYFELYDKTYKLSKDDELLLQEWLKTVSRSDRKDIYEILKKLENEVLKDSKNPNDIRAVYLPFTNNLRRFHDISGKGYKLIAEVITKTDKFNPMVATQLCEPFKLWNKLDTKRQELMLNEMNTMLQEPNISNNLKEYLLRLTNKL

[11] = target: T2, Leucine aminopeptidase (Plasmodium falciparum 3D7, UniProt Q8IL11); assay: P. falciparum M17LAP inhibitors, primary screen, biochemical, fluorogenic H-Leu-NHMec substrate, 1536-well (AID 1619); type: functional
T2 sequence (Q8IL11 whole entry): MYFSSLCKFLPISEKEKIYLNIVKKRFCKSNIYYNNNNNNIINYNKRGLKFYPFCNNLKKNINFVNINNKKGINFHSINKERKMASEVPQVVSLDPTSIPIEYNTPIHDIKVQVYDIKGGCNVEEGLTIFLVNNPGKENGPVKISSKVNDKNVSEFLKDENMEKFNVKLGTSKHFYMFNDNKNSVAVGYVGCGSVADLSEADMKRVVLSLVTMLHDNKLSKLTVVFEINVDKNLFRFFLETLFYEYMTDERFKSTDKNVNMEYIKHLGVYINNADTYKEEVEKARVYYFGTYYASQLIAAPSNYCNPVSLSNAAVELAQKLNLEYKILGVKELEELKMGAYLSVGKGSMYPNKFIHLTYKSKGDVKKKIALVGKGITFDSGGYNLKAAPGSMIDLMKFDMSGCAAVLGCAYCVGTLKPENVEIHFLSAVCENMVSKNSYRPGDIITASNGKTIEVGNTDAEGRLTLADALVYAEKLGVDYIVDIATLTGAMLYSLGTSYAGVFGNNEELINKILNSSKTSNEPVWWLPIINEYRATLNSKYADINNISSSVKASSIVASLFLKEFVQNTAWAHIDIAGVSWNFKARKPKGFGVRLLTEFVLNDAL

[12] = cytotoxicity in HEK-293T cells, dose response, cytotoxicity control for TCR NF-kB inhibitor project, luminescence, T-cell screen hits (AID 489026); type: functional, cell-based;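 note: cells exposed to compound about 14 hours before the viability readout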
[13] = NIH-3T3 fibroblast cytotoxicity, dose response, cytotoxicity control, cell-based, fluorescence, Alamar Blue, secondary assay (AID 2327); type: functional;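 note: NIH-3T3 mouse fibroblasts cultured with fluconazole at 8 µg/mL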
[14] = C. albicans growth with fluconazole, confirmation, fluorescence, retest (AID 2467); type: functional, cell-based
[15] = tested on: INS1; assay: beta cell apoptosis inhibitors, cytokine rescue, dose response, luminescence, retest (AID 449756); type: functional, cell-based; conditions: Rattus norvegicus;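 note: cell death triggered by IL-1 beta plus TNF-alpha plus IFN-gamma mixture; protective hits raise ATP signal compared with cytokine alone wells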
[16] = tested on: HEK293; assay: inhibitors of LMP1-driven NF-kB reporter, dose response, cell-based, HEK293, luciferase, cherry-pick (AID 588343); type: functional; conditions: Homo sapiens
[17] = cells; type: functional, cell-based
[18] = cells; type: functional, cell-based; remark: listed apart in the source
[19] = target: T3, Calpain-2 catalytic subunit (Sus scrofa, UniProt P43367); assay: pig calpain II inhibitor potency, dose response, biochemical, fluorogenic peptide substrate (AID 1420); type: functional
T3 sequence (P43367 whole entry): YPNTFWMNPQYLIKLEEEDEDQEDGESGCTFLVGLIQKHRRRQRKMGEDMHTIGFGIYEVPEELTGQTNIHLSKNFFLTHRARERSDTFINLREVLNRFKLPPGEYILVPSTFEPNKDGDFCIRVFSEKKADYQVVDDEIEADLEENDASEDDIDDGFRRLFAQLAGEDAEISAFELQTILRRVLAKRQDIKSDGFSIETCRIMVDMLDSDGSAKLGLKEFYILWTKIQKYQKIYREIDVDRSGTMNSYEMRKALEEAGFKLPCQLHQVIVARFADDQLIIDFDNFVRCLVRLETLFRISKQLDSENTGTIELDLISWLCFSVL

[20] = target: Dual specificity tyrosine-phosphorylation-regulated kinase 1A (Rattus norvegicus, UniProt Q63470); type: biochemical, Homo sapiens
[21] = tested on: Escherichia coli; assay: microbe, parasite or virus in culture
[22] = target: T4, Protein RecA (Mycobacterium tuberculosis, UniProt P9WHJ3); assay: Fluorescence Cell-Free Homogeneous Dose Retest to Identify Inhibitors of RecA-Intein Splicing Activity. [Related pubchem assays (depositor defined):AID2097, AID2223, AID489010, AID492950]; type: functional
T4 sequence (P9WHJ3 whole entry): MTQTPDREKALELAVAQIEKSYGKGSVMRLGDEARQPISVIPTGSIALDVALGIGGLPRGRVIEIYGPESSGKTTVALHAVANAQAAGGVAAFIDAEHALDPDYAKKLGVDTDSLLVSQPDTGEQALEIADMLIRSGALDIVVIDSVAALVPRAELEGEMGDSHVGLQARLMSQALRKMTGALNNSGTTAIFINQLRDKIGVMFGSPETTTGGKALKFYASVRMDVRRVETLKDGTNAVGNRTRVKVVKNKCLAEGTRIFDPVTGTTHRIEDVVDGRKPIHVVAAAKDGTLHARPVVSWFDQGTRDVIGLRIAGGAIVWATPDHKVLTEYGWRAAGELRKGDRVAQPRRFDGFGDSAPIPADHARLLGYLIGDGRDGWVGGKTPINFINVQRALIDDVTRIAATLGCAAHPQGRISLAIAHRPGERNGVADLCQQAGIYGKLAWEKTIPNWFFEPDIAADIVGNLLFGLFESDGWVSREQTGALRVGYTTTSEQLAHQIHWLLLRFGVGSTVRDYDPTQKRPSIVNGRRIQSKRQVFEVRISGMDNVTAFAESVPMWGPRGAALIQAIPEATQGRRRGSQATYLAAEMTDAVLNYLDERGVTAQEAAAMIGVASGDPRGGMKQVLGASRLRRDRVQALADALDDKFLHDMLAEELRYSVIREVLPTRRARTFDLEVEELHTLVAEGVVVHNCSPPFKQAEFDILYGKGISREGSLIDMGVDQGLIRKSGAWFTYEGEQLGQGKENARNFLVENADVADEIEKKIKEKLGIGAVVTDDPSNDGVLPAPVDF

[23] = target: Large T antigen (Simian virus 40, UniProt P03070); type: functional, Betapolyomavirus macacae;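 note: Confirmatory-stage PubChem screen for compounds that inhibit SV40 T antigen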
[24] = target: T5, Replicative DNA helicase DnaB (Mycobacterium tuberculosis, UniProt P9WMR3); assay: DnaB intein splicing inhibitors, dose response, biochemical, cell-free fluorescence (AID 449749); type: functional
T5 sequence (P9WMR3 whole entry): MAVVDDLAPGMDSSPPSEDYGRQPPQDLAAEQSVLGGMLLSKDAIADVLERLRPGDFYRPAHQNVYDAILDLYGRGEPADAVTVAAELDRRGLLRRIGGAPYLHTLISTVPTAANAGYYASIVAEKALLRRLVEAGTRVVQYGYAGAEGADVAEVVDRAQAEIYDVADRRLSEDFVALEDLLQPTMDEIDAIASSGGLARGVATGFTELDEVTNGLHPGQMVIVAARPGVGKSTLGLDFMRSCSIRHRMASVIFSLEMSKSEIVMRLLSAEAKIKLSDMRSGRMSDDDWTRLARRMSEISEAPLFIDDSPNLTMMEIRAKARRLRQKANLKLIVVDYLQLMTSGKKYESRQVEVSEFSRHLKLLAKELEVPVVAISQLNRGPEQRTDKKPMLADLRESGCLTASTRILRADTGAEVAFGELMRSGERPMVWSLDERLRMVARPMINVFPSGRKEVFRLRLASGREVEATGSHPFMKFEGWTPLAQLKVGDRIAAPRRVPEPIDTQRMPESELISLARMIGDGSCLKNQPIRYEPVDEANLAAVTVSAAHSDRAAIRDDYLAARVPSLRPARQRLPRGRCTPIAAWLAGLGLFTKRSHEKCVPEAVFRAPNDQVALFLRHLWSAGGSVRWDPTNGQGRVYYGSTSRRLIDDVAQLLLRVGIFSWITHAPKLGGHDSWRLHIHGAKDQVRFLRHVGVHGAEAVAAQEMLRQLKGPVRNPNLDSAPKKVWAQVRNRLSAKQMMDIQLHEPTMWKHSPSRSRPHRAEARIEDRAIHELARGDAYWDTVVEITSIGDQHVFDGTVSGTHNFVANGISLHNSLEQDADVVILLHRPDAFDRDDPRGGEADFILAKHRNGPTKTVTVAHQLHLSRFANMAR

Eukaryotic translation initiation factor 4E, sequence (P63073 whole entry): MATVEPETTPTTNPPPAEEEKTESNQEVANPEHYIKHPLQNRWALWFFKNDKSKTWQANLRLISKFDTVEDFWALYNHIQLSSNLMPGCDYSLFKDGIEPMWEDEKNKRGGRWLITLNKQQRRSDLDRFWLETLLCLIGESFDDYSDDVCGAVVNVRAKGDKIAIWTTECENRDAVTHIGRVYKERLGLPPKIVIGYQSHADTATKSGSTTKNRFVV
Large T antigen, sequence (P03070 whole entry): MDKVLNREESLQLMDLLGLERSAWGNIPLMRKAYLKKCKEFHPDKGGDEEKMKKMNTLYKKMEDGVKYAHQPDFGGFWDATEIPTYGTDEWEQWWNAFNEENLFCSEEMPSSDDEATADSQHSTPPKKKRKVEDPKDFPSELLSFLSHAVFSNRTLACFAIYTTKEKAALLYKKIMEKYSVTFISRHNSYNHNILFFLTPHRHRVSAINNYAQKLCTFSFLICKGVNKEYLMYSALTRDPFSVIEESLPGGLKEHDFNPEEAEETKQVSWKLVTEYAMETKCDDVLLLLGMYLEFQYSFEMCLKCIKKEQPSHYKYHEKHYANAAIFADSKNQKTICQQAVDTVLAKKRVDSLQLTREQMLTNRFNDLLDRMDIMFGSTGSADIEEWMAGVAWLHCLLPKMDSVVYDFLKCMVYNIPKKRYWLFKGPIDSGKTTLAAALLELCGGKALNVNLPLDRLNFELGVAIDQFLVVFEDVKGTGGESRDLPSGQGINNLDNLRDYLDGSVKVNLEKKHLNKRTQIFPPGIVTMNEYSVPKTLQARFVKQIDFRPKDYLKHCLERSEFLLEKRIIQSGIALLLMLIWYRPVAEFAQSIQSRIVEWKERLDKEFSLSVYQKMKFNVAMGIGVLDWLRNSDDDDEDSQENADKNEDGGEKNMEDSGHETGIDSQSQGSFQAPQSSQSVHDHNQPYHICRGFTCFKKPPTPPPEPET

CCOC(=O)Cn1c(-c2nonc2NC(=O)c2ccccc2F)nc2ccccc21
IC50 [1]: 0.98 µM (active) | IC50 [2]: 4.57 µM (active) | CC50 [3]: > 6.25 µM (active)

CC(=O)c1cccc(NC(=O)c2nc(-c3ccccc3)oc2C)c1
IC50 [4]: 50 µM (inactive)

CCOC(=O)C1=C(NC(=S)NC(=O)c2ccccc2)c2ccccc2CC1C(C)C (stereo unspecified)
IC50 [1]: 9.18 µM (active) | EC50 [5]: > 150 µM (not active) | IC50 [2]: 3.58 µM (active) | CC50 [6]: > 25 µM (active) | CC50 [3]: 9.61 µM (active) | EC50 [7]: > 150 µM (not active) | EC50 [8]: 54.1 µM (inconclusive) | EC50 [9]: 60.6 µM (active)

O=C(O)Cn1cc(/C=C2/SC(=O)N(CC(=O)N3CCCCCC3)C2=O)c2ccccc21
IC50 [10]: 82.3 µM (active)

COc1ccccc1N1CCN(C(=O)CSc2nc(-c3ccccc3)cc(=O)[nH]2)CC1
IC50 [11]: 16 µM (active)

Cc1cccc(C)c1NC(=O)CSc1ncnc2nc[nH]c12
IC50 [11]: 39.9 µM (active)

CCn1ncc(C2=NOC(C(=O)NCc3ccc(Cl)cc3)C2)c1C (stereo unspecified)
IC50 [12]: > 80 µM (inactive)

COc1cccc(/C=N/NC(=O)c2[nH]nc3c2CCc2ccccc2-3)c1O
EC50 [13]: 9.81 µM (active) | EC50 [14]: 1.49 µM (active) | AC50 [15]: 0.796 µM (active) | AC50 [16]: 5.71 µM (active) | EC50 [17]: 9.85 µM (active) | EC50 [18]: > 350 µM (not active) | IC50 [12]: 54 µM (inactive)

Cc1ccc(C(C(=O)NC2CCCC2)N(C(=O)Cc2cccs2)c2ccc(C)c(C)c2)o1 (stereo unspecified)
IC50 [19]: 10.9 µM (not active)

O=C(CSc1nnc[nH]1)Nc1ccc2c(c1)OCCO2
IC50 [11]: 64.9 µM (active)

CC(C)N(C(=O)c1sc2cc([N+](=O)[O-])ccc2c1Cl)C(C)C
IC50 [19]: 1.98 µM (not active)

CC1CC(=O)N(CC(=O)Nc2ccc3c(c2)OCO3)c2ccccc2S1 (stereo unspecified)
IC50 [11]: 21.9 µM (active)

Cc1ccc(C(C)C)c(OCc2nc(-c3nonc3N)no2)c1
IC50 [4]: > 64 µM (inactive)

c1ccc2c(-c3ccncc3)c[nH]c2c1
AC50 [16]: 144 µM (active) | AC50 [20]: 2.41 µM (active)

COc1cc(-c2[nH]ncc2CN2CCN(Cc3cccs3)CC2)cc(OC)c1OC
IC50 [4]: 50 µM (inactive)

Cc1ccccc1NC(=O)CCN1CCN(CCO)CC1
AC50 [21]: 23.6 µM (active)

COc1cc(C=C2C(=O)c3ccccc3C2=O)ccc1O
EC50 [22]: 22.9 µM (active) | IC50 [23]: 15.1 µM (active) | AC50 [20]: 0.585 µM (active) | AC50 [24]: > 380 µM (inactive)

Cc1c(Cl)cccc1NC(=O)CCC(=O)NNC(=O)c1ccccc1Cl
IC50 [4]: > 64 µM (inactive)

Cc1cnc(NC(=O)COc2cccc3c2OC(C)(C)C3)s1
IC50 [1]: 13 µM (active) | IC50 [2]: 22.2 µM (active) | CC50 [6]: > 25 µM (active) | CC50 [3]: 30.2 µM (active)
